For series [1], the system named is carrageenin-induced foot edema. Kind of series: inhibition of carrageenin-induced foot edema test (C.E.). The class given is in vivo. Particulars: oral; for inhibition in vivo at 4 µmol/kg: dose 0.004 millimoles/kg; for inhibition in vivo at 20 µmol/kg: dose 0.02 millimoles/kg; for C.E. percent inhibition (Table B): formula V amides; for C.E. percent inhibition (Table B, footnote a): (a) data obtained after 17 days on test and 9 medications. The protocol:
(§1) Anti-inflammatory activity was determined using (1) the inhibition of carrageenin-induced foot edema test essentially described by Winter et al., Proc. Soc. Exp. Biol. and Med. 111, 554 (1962) as modified by Van Arman et al., J. Pharmacol. Exptl. Therap. 150, 328 (1965) and (2) a modification of the inhibition of adjuvant-induced arthritis test described by Pierson, J. Chronic Diseases 16, 863 (1963) and Glenn et al., Am. J. Vet. Res. 26, 1180 (1965).
(§2) The N-{2-,3- and 4-[R1 -(phenyl)-C(=X)]-phenyl-lower-alkyl}amines of formulas I, Ia and Ib of the invention have been tested in the carrageenin edema (CE) and adjuvant arthritis (AA) tests and found to have anti-inflammatory activity. For comparative purposes, data obtained in the carrageenin edema test on the reference compound (designated "Ref."), 4[(3-benzoylphenyl)methyl]morpholine, disclosed in French Patent 1,549,342, are also given. All data were obtained on oral administration.
(The carrageenan paw model is a standard test of acute inflammation.)

Series [2] concerns adjuvant-induced arthritis. Kind of series: inhibition of adjuvant-induced arthritis test (A.A.). In kind it is in vivo. Particulars: oral; for inhibition in vivo at 80 µmol/kg / inhibition in vivo at 160 µmol/kg / inhibition in vivo at 5 µmol/kg / inhibition in vivo at 20 µmol/kg / inhibition in vivo at 324 µmol/kg: read-out: A.A. percent inhibition; for inhibition in vivo at 160 µmol/kg: dose 0.16 millimoles/kg; for inhibition in vivo at 5 µmol/kg: dose 0.005 millimoles/kg; for inhibition in vivo at 20 µmol/kg: dose 0.02 millimoles/kg; for A.A. percent inhibition (Table B): formula V amides; for A.A. percent inhibition (Table B, footnote a): (a) data obtained after 17 days on test and 9 medications. As to the method:
as §1, §2

Setting [3] is: read-out: C.E. percent inhibition.
Where [4] appears, read: dose 0.08 millimoles/kg, read-out: C.E. percent inhibition.
[5] abbreviates: dose 0.324 millimoles/kg, read-out: C.E. percent inhibition.

Counter-ions that a name gives are not always drawn.

These results are taken from US4417052A, “Phenyl-lower-alkyl piperidines and pyrrolidines” (Sterling Drug Inc., priority 1981, dated 1983).

Take `COc1ccc(C(=O)c2cccc(C(C)CN3CCCCC3CC3CCCCC3)c2)cc1` (stereo not drawn) [Example 7, 2-cyclohexylmethyl-1-{2-[3-(4-methoxybenzoyl)phenyl]propyl}piperidine]: in series [1] (setting [3]), the inhibition in vivo at 4 µmol/kg came to 0% and the inhibition in vivo at 20 µmol/kg came to 22%. Moreover, the inhibition in vivo at 80 µmol/kg in series [2] (dose 0.08 millimoles/kg) came to 63%.
In the case of `CC(CN1CCCC1CC1CCCCC1)c1cccc(C(=O)c2ccccc2)c1` (stereo not drawn) [Example 7A, 2-Cyclohexylmethyl-1-[2-(3-benzoylphenyl)propyl]pyrrolidine], the inhibition in vivo at 80 µmol/kg in series [1] (setting [4]) came out at 45%. The inhibition in vivo at 324 µmol/kg in series [1] (setting [5]) was found to be 60%. Also, in series [2], the inhibition in vivo at 160 µmol/kg came out at 90%.
With `CC(CN1CCCCC1CC1CCCCC1)c1cccc(C(=O)c2ccc(F)cc2)c1` (stereo not drawn) [Example 7B, 2-Cyclohexylmethyl-1-{2-[3-(4-fluorobenzoyl)phenyl]propyl}piperidine], in series [1] (setting [3]), the inhibition in vivo at 4 µmol/kg worked out at 3% and the inhibition in vivo at 20 µmol/kg stood at 38%. In addition, in series [2], the inhibition in vivo at 5 µmol/kg was 61% and the inhibition in vivo at 20 µmol/kg stood at 55%. For the same compound, the inhibition in vivo at 80 µmol/kg in series [2] (dose 0.08 millimoles/kg) worked out at 85%.
For `CC(CN1CCCCC1)c1cccc(C(=O)c2ccccc2)c1` (stereo not drawn) [Example 14A, 1-[2-(3-Benzoylphenyl)propyl]piperidine hydrochloride], the inhibition in vivo at 80 µmol/kg turned out to be 39% in series [1] (setting [4]) and 49% in series [2] (dose 0.08 millimoles/kg). The inhibition in vivo at 324 µmol/kg in series [1] (setting [5]) turned out to be 67%.
`CC(C(=O)N1CCN(C2CCCCC2)CC1)c1cccc(C(=O)c2ccccc2)c1.Cl` (stereo not drawn) [Example 1E, 4-Cyclohexyl-1-[α-(3-benzoylphenyl)propionyl]piperazine hydrochloride]: the convulsions and salivation result in series [1] (C.E. test, dose 0.324 millimoles/kg) is “Convulsions and salivation produced in 2 of 8 test animals”. For the same compound, the “C.E. percent inhibition (Table B)” value in series [1] (dose 0.08 millimoles/kg) was 10%; in series [1] (dose 0.324 millimoles/kg), 61%. In addition, the “A.A. percent inhibition (Table B)” value in series [2] (dose 0.08 millimoles/kg) was determined as 63%.
For the compound `CC(C(=O)N1CCCCC1CC1CCCCC1)c1cccc(C(=O)c2ccccc2)c1` (stereo not drawn) [Example 1 (Table B), 2-cyclohexylmethyl-1-[α-(3-benzoylphenyl)propionyl]piperidine], the “C.E. percent inhibition (Table B)” value in series [1] (dose 0.08 millimoles/kg) worked out at 21%. The “C.E. percent inhibition (Table B, footnote a)” value in series [1] (dose 0.324 millimoles/kg) is recorded as 36%. Also, in series [2] (dose 0.324 millimoles/kg), the “A.A. percent inhibition (Table B, footnote a)” value is given as 67%.
In the case of `CC(CN1CCCCC1CC1CCCCC1)c1cccc(C(=O)c2ccc(Cl)cc2)c1` (stereo not drawn) [Example 20, 2-cyclohexylmethyl-1-{2-[3-(4-chlorobenzoyl)phenyl]propyl}piperidine], in series [1] (setting [3]), the inhibition in vivo at 4 µmol/kg was found to be 16% and the inhibition in vivo at 20 µmol/kg was determined as 52%. Also, in series [2], the inhibition in vivo at 5 µmol/kg amounted to 63% and the inhibition in vivo at 20 µmol/kg worked out at 90%. For the same compound, the “toxicity” value in series [2] (dose 0.08 millimoles/kg) is given as “Toxic”.
Consider `CC(C(=O)N1CCC(CC2CCCCC2)CC1)c1cccc(C(=O)c2ccccc2)c1` (stereo not drawn) [Example 1L, 4-Cyclohexylmethyl-1-[α-(3-benzoylphenyl)propionyl]piperidine], for which the “C.E. percent inhibition (Table B)” value in series [1] (dose 0.08 millimoles/kg) is reported as 13%. Further, the “C.E. percent inhibition (Table B, footnote a)” value in series [1] (dose 0.324 millimoles/kg) came to 31%. In series [2] (dose 0.324 millimoles/kg), the “A.A. percent inhibition (Table B, footnote a)” value was 74%.
Take `CC(C(=O)N1CCN(C2CCCCC2)CC1)c1cccc(Cc2ccccc2)c1.Cl` (stereo not drawn) [Example 25, 4-cyclohexyl-1-[α-(3-benzylphenyl)propionyl]piperazine hydrochloride]: the “C.E. percent inhibition (Table B)” value in series [1] (dose 0.08 millimoles/kg) was 0%; in series [1] (dose 0.324 millimoles/kg), 45%. Also, in series [2] (dose 0.162 millimoles/kg), the “A.A. percent inhibition (Table B)” value was 79%.
On to `NC(c1ccccc1)c1cccc(CN2CCOCC2)c1` (stereo not drawn) [Example 16B, 4-{[3-(α-Aminobenzyl)phenyl]methyl}morpholine dihydrochloride monohydrate], for which, in series [1] (setting [4]), the inhibition in vivo at 80 µmol/kg was 0%. Also, the values for the inhibition in vivo at 324 µmol/kg in series [1] (setting [5]) and in series [2] (dose 0.324 millimoles/kg) were 36% and 0%, respectively.
With `COc1ccc(C(O)c2cccc(C(C)CN3CCCCC3CC3CCCCC3)c2)cc1` (stereo not drawn) [Example 3, 2-cyclohexylmethyl-1-{2-[3-(α-hydroxy-4-methoxybenzyl)phenyl]propyl}piperidine], the inhibition in vivo at 5 µmol/kg is 0% in series [1] (dose 0.005 millimoles/kg, read-out: C.E. percent inhibition) and 0% in series [2]. Moreover, the inhibition in vivo at 20 µmol/kg came to 3% in series [1] (setting [3]) and 2% in series [2]. For the same compound, the inhibition in vivo at 80 µmol/kg was 35% in series [1] (setting [4]) and 30% in series [2] (dose 0.08 millimoles/kg).
Consider `CC1CCCC(C)N1CCc1ccc(O)c(C(=O)c2ccccc2)c1` (stereo not drawn) [Example 19, 2,6-dimethyl-1-[2-(3-benzoyl-4-hydroxyphenyl)ethyl]piperidine hydrochloride], for which the inhibition in vivo at 20 µmol/kg in series [1] (setting [3]) was found to be 5%. Moreover, the inhibition in vivo at 80 µmol/kg in series [1] (setting [4]) came out at 0%. Also, the inhibition in vivo at 324 µmol/kg in series [1] (setting [5]) was determined as 23%. Moreover, in series [2], the inhibition in vivo at 160 µmol/kg was 1%.
Consider `CC(C(=O)N1CCN(c2ccccc2)CC1)c1cccc(C(=O)c2ccccc2)c1` (stereo not drawn) [Example 1F, 4-Phenyl-1-[α-(3-benzoylphenyl)propionyl]piperazine], for which the entries for the “C.E. percent inhibition (Table B)” value in series [1] (dose 0.08 millimoles/kg) and in series [1] (dose 0.324 millimoles/kg) were 2% and 18%, respectively. Further, the “A.A. percent inhibition (Table B)” value in series [2] (dose 0.324 millimoles/kg) is recorded as 58%.
In the case of `CC(CN1CCC2(CC1)OCCO2)c1ccc(C(=O)c2ccccc2)cc1.Cl` (stereo not drawn) [Example 24B, 8-[2-(4-benzoylphenyl)propyl]1,4-dioxa-8-azaspiro[4,5]decane hydrochloride], the inhibition in vivo at 80 µmol/kg in series [1] (setting [4]) turned out to be 38%; in series [2] (dose 0.08 millimoles/kg) it was 30%. The inhibition in vivo at 324 µmol/kg in series [1] (setting [5]) is 50%. In addition, the “toxicity” value in series [2] (dose 0.324 millimoles/kg) is reported as “Toxic”.
Turning to `CC(CN1CCCCC1CCCC1CCCCC1)c1cccc(C(=O)c2ccccc2)c1` (stereo not drawn) [Example 7D, 2-(3-Cyclohexylpropyl)-1-[2-(3-benzoylphenyl)propyl]piperidine], the inhibition in vivo at 80 µmol/kg in series [1] (setting [4]) stood at 37%. Further, in series [1] (setting [5]), the inhibition in vivo at 324 µmol/kg was 49%. In addition, the inhibition in vivo at 160 µmol/kg in series [2] was determined as 100%.
Consider `CC(CN1CCCC1CC1CCCCC1)c1cccc(C(O)c2ccccc2)c1` (stereo not drawn) [Example 3B, 2-Cyclohexylmethyl-1-{2-[3-(α-hydroxybenzyl)phenyl]propyl}pyrrolidine], for which the inhibition in vivo at 80 µmol/kg in series [1] (setting [4]) turned out to be 19%. The inhibition in vivo at 324 µmol/kg in series [1] (setting [5]) stood at 63%. Besides, the inhibition in vivo at 160 µmol/kg in series [2] stood at 91%.
Consider `CC(CN1CCCCC1CC1CCCCC1)c1cccc(C(N)c2ccccc2)c1` (stereo not drawn) [Example 16, 2-cyclohexylmethyl-1-{2-[3-(α-aminobenzyl)phenyl]propyl}piperidine dihydrochloride], for which, in series [1] (setting [3]), the inhibition in vivo at 4 µmol/kg came to 16% and the inhibition in vivo at 20 µmol/kg stood at 31%. Further, in series [2], the inhibition in vivo at 5 µmol/kg was 80% and the inhibition in vivo at 20 µmol/kg amounted to 89%. Moreover, the inhibition in vivo at 80 µmol/kg in series [2] (dose 0.08 millimoles/kg) was 108%.
Regarding `CC(CN1CCCCC1CC1CCCCC1)c1cccc(C(=NO)c2ccccc2)c1` (stereo not drawn) [Example 15, 2-cyclohexylmethyl-1-[2-(3-benzoylphenyl)propyl]piperidine oxime], the inhibition in vivo at 4 µmol/kg in series [1] (setting [3]) was 16%. Besides, the inhibition in vivo at 20 µmol/kg was 43% in series [1] (setting [3]) and 92% in series [2]. Besides, the inhibition in vivo at 80 µmol/kg in series [2] (dose 0.08 millimoles/kg) came out at 91%.
As to `CC(CN1CCC2(CC1)OCCO2)c1cccc(C(=O)c2ccccc2)c1` (stereo not drawn) [7G (base), 8-[2-(3-Benzoylphenyl)propyl]-1,4-dioxa-8-azaspiro[4,5]decane], in series [1] (setting [3]), the inhibition in vivo at 4 µmol/kg amounted to 33% and the inhibition in vivo at 20 µmol/kg was 42%. Moreover, in series [2] (dose 0.08 millimoles/kg), the inhibition in vivo at 80 µmol/kg amounted to 76%.
With `CC(CN1CCCCC1CC1CCCCC1)c1cccc(C(=O)c2ccccc2Cl)c1` (stereo not drawn) [Example 20D, 2-Cyclohexylmethyl-1-{2-[3-(2-chlorobenzoyl)phenyl]propyl}piperidine], in series [1] (setting [3]), the inhibition in vivo at 4 µmol/kg came to 0% and the inhibition in vivo at 20 µmol/kg was 36%. In addition, in series [2], the inhibition in vivo at 5 µmol/kg stood at 35% and the inhibition in vivo at 20 µmol/kg stood at 54%. Also, the inhibition in vivo at 80 µmol/kg in series [2] (dose 0.08 millimoles/kg) stood at 79%.
As for `CC(CN1CCOCC1)c1ccc(C(=O)c2ccccc2)cc1` (stereo not drawn) [Example 24A, 4-[2-(4-benzoylphenyl)propyl]morpholine hydrochloride], the inhibition in vivo at 80 µmol/kg in series [1] (setting [4]) stood at 44%. For the same compound, the inhibition in vivo at 324 µmol/kg came out at 56% in series [1] (setting [5]) and 78% in series [2] (dose 0.324 millimoles/kg).
Consider `CC(CN1CCOCC1)c1cccc(C(=O)c2ccccc2)c1` (stereo not drawn) [7H (base), 4-[2-(3-Benzoylphenyl)propyl]morpholine], for which, in series [1] (setting [3]), the inhibition in vivo at 4 µmol/kg came to 29% and the inhibition in vivo at 20 µmol/kg came out at 44%. In addition, the inhibition in vivo at 80 µmol/kg in series [2] (dose 0.08 millimoles/kg) was found to be 81%.
`CC(C(=O)N1CCN(C2CCCCCC2)CC1)c1cccc(Cc2ccccc2)c1.Cl` (stereo not drawn) [Example 25B, 4-Cycloheptyl-1-[α-(3-benzylphenyl)propionyl]piperazine hydrochloride]: the “C.E. percent inhibition (Table B)” value in series [1] (dose 0.08 millimoles/kg) is 25%; in series [1] (dose 0.324 millimoles/kg) it was 44%. For the same compound, the “A.A. percent inhibition (Table B)” value in series [2] (dose 0.324 millimoles/kg) came to 78%.
